Tests used:
Assay type in all cases: in vivo
[1] = system: sedge, umbrella (small-flower umbrella sedge Cyperus difformis); test: Test B flooded paddy: sedge, umbrella; settings: Flood; 250 g ai/ha; applied to paddy water at 2-leaf stage; visually evaluated after 13 to 15 days
Method in brief: (§1)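 At two leaves, seedlings received the test compound via the paddy water, pots having been flooded 3 cm over the soil surface and kept so. Greenhouse-held for 13 to 15 days, then judged by eye against controls on a scale running 0 (no effect) to 100 (complete control).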

[2] = system: wheat (Triticum aestivum); test: Test A pre-/postemergence: wheat
Method in brief: (§2)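 Injury was scored visually on a 0 (no effect) to 100 (complete control) scale versus untreated controls roughly ten days after treatment in the greenhouse. Compounds, formulated in surfactant-containing non-phytotoxic solvent, went on as soil-directed preemergence spray or postemergence to one- to two-leaf plants 2–10 cm tall.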

[3] = system: foxtail, giant (giant foxtail, Setaria faberii); test: Test A pre-/postemergence: foxtail, giant; settings: for Foxtail, Giant plant response rating: Postemergence; for Plant response rating, Foxtail, Giant: Preemergence
Method in brief: as §2

[4] = system: morningglory (Ipomoea spp.); test: Test A pre-/postemergence: morningglory
Method in brief: as §2

[5] = system: barnyardgrass (Echinochloa crus-galli); test: Test B flooded paddy: barnyardgrass; settings: Flood; 250 g ai/ha; applied to paddy water at 2-leaf stage; visually evaluated after 13 to 15 days
Method in brief: as §1

[6] = system: ducksalad (Heteranthera limosa); test: Test B flooded paddy: ducksalad; settings: Flood; 250 g ai/ha; applied to paddy water at 2-leaf stage; visually evaluated after 13 to 15 days
Method in brief: as §1

[7] = system: crabgrass, large (large crabgrass, Digitaria sanguinalis); test: Test A pre-/postemergence: crabgrass, large; settings: for Crabgrass, Large plant response rating: Postemergence; for Plant response rating, Crabgrass, Large: Preemergence
Method in brief: as §2

[8] = system: pigweed (Amaranthus retroflexus); test: Test A pre-/postemergence: pigweed
Method in brief: as §2

[9] = system: velvetleaf (Abutilon theophrasti); test: Test A pre-/postemergence: velvetleaf
Method in brief: as §2

[10] = system: barnyardgrass (Echinochloa crus-galli); test: Test A pre-/postemergence: barnyardgrass; settings: for Barnyardgrass plant response rating: Postemergence; for Plant response rating, Barnyardgrass: Preemergence
Method in brief: as §2

[11] = system: rice (Oryza sativa); test: Test B flooded paddy: rice; settings: Flood; 250 g ai/ha; applied to paddy water at 2-leaf stage; visually evaluated after 13 to 15 days
Method in brief: as §1

[12] = system: corn (Zea mays); test: Test A pre-/postemergence: corn; settings: for Corn plant response rating: Postemergence; for Plant response rating, Corn: Preemergence
Method in brief: as §2

[13] = Postemergence, 125 g ai/ha, 0 to 100 scale, 0 is no effect, 100 is complete control
[14] = Postemergence, 500 g ai/ha, visual rating on 0 to 100 scale (0 no effect, 100 complete control), approximately ten days
[15] = Preemergence, 125 g ai/ha, 0 to 100 scale where 0 is no effect and 100 is complete control
[16] = Preemergence, 500 g ai/ha, 0 to 100 scale (0 no effect, 100 complete control)
[17] = 125 g ai/ha, 0 to 100 scale, 0 is no effect, 100 is complete control
[18] = 500 g ai/ha, visual rating on 0 to 100 scale (0 no effect, 100 complete control), approximately ten days
[19] = 125 g ai/ha, 0 to 100 scale where 0 is no effect and 100 is complete control
[20] = 500 g ai/ha, 0 to 100 scale (0 no effect, 100 complete control)

CCc1nn(-c2ccc(F)cc2)nc1Cc1cccc(C(F)(F)F)c1 [Compound 144]
Plant response rating, Sedge, Umbrella (0 to 100 scale, 0 is no effect, 100 is complete control) [1]: 80 | Plant response rating, Wheat [2, 13]: 0 | Wheat plant response rating [2, 14]: 20 | Plant response rating, Wheat [2, 15]: 0 | Plant response rating, Wheat [2, 16]: 0 | Foxtail, Giant plant response rating [3, 17]: 30 | Foxtail, Giant plant response rating [3, 18]: 90 | Plant response rating, Foxtail, Giant [3, 19]: 50 | Plant response rating, Foxtail, Giant [3, 20]: 100 | Plant response rating, Morningglory [4, 13]: 20 | Morningglory plant response rating [4, 14]: 90 | Plant response rating, Morningglory [4, 15]: 0 | Plant response rating, Morningglory [4, 16]: 0 | Plant response rating, Barnyardgrass (0 to 100 scale, 0 is no effect, 100 is complete control) [5]: 30 | Plant response rating, Ducksalad (0 to 100 scale, 0 is no effect, 100 is complete control) [6]: 40 | Crabgrass, Large plant response rating [7, 17]: 50 | Crabgrass, Large plant response rating [7, 18]: 90 | Plant response rating, Crabgrass, Large [7, 19]: 50 | Plant response rating, Crabgrass, Large [7, 20]: 100 | Plant response rating, Pigweed [8, 13]: 100 | Pigweed plant response rating [8, 14]: 100 | Plant response rating, Pigweed [8, 15]: 50 | Plant response rating, Pigweed [8, 16]: 100 | Plant response rating, Velvetleaf [9, 13]: 40 | Velvetleaf plant response rating [9, 14]: 50 | Plant response rating, Velvetleaf [9, 15]: 0 | Plant response rating, Velvetleaf [9, 16]: 0 | Barnyardgrass plant response rating [10, 17]: 10 | Barnyardgrass plant response rating [10, 18]: 30 | Plant response rating, Barnyardgrass [10, 19]: 0 | Plant response rating, Barnyardgrass [10, 20]: 30 | Plant response rating, Rice (0 to 100 scale, 0 is no effect, 100 is complete control) [11]: 20 | Corn plant response rating [12, 17]: 10 | Corn plant response rating [12, 18]: 30 | Plant response rating, Corn [12, 19]: 0 | Plant response rating, Corn [12, 20]: 0

From patent publication US9302999B2, “Substituted triazoles as herbicides” (E. I. DU PONT DE NEMOURS AND COMPANY, priority 2012, dated 2016)
